System: yeast genes (expressed mRNA)
Assay: DNA chip measurement of expressed mRNA of yeast genes after culture with a toxic chemical substance
Format: cell-based, Saccharomyces cerevisiae S288C
Outline: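 Fluorescence ratio, treated over untreated, read by chip scanner; ratio of two or more counted significant. Cells: S288C yeast, YPD, 25° C, chemical added at log phase for 2 h at growth-inhibiting, sublethal level. Cy3/Cy5-labeled cDNA from oligo-dT-purified mRNA.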

`N#Cc1c(Cl)c(Cl)c(Cl)c(C#N)c1Cl` [(9), 2,4,5,6-Tetrachloro-1,3-benzenedicarbonitrile] was tested, and the “The level of expressed mRNA in the presence of chemical substance/The level of expressed mRNA in the absence of chemical substance” value (yeast gene YFL010C, cultured two hours with substance) was 3.1, the “The level of expressed mRNA in the presence of chemical substance/The level of expressed mRNA in the absence of chemical substance” value (yeast gene YFL014W, DNA repair protein genes, cultured two hours with substance) was 13.1 and the “The level of expressed mRNA in the presence of chemical substance/The level of expressed mRNA in the absence of chemical substance” value (yeast gene YFL024C, cultured two hours with substance) was 0.5. The “The level of expressed mRNA in the presence of chemical substance/The level of expressed mRNA in the absence of chemical substance” value (yeast gene YFL030W, metabolism protein genes) was 24.5, the “The level of expressed mRNA in the presence of chemical substance/The level of expressed mRNA in the absence of chemical substance” value (yeast gene YFL032W, cultured two hours with substance) was 0.5 and the “The level of expressed mRNA in the presence of chemical substance/The level of expressed mRNA in the absence of chemical substance” value (yeast gene YFL056C) was 162.3. The “The level of expressed mRNA in the presence of chemical substance/The level of expressed mRNA in the absence of chemical substance” value (yeast gene YFL056C, cultured for two hours with substance) was 162.3, the “The level of expressed mRNA in the presence of chemical substance/The level of expressed mRNA in the absence of chemical substance” value (yeast gene YFL057C) was 51.8 and the “The level of expressed mRNA in the presence of chemical substance/The level of expressed mRNA in the absence of chemical substance” value (yeast gene YFL057C, cultured for two hours with substance) was 51.8. For the same compound, the “The level of expressed mRNA in the presence of chemical substance/The level of expressed mRNA in the absence of chemical substance” value (yeast gene YFR020W, cultured two hours with substance) was 3.7, the “The level of expressed mRNA in the presence of chemical substance/The level of expressed mRNA in the absence of chemical substance” value (yeast gene YFR030W) was 24.1 and the “The level of expressed mRNA in the presence of chemical substance/The level of expressed mRNA in the absence of chemical substance” value (yeast gene YFR042W, cultured two hours with substance) was 2.8. The “The level of expressed mRNA in the presence of chemical substance/The level of expressed mRNA in the absence of chemical substance” value (yeast gene YGL037C, cultured two hours with substance) was 2.1, the “The level of expressed mRNA in the presence of chemical substance/The level of expressed mRNA in the absence of chemical substance” value (yeast gene YGL047W, cultured two hours with substance) was 4.5 and the “The level of expressed mRNA in the presence of chemical substance/The level of expressed mRNA in the absence of chemical substance” value (yeast gene YGL053W, cultured two hours with substance) was 3.3. For the same compound, the “The level of expressed mRNA in the presence of chemical substance/The level of expressed mRNA in the absence of chemical substance” value (yeast gene YGL091C, DNA repair protein genes, cultured two hours with substance) was 10.8, the “The level of expressed mRNA in the presence of chemical substance/The level of expressed mRNA in the absence of chemical substance” value (yeast gene YGL098W, cultured two hours with substance) was 1.2 and the “The level of expressed mRNA in the presence of chemical substance/The level of expressed mRNA in the absence of chemical substance” value (yeast gene YGL104C) was 4.6. For the same compound, the “The level of expressed mRNA in the presence of chemical substance/The level of expressed mRNA in the absence of chemical substance” value (yeast gene YGL121C, cultured two hours with substance) was 7.0, the “The level of expressed mRNA in the presence of chemical substance/The level of expressed mRNA in the absence of chemical substance” value (yeast gene YGL136C, cultured two hours with substance) was 1.3 and the “The level of expressed mRNA in the presence of chemical substance/The level of expressed mRNA in the absence of chemical substance” value (yeast gene YGL227W, cultured two hours with substance) was 2.4. The “The level of expressed mRNA in the presence of chemical substance/The level of expressed mRNA in the absence of chemical substance” value (yeast gene YGR010W, cultured two hours with substance) was 13.6, the “The level of expressed mRNA in the presence of chemical substance/The level of expressed mRNA in the absence of chemical substance” value (yeast gene YGR043C) was 10.9 and the “The level of expressed mRNA in the presence of chemical substance/The level of expressed mRNA in the absence of chemical substance” value (yeast gene YGR043C, cultured for two hours with substance) was 10.9. For the same compound, the “The level of expressed mRNA in the presence of chemical substance/The level of expressed mRNA in the absence of chemical substance” value (yeast gene YGR101W, cultured two hours with substance) was 4.0, the “The level of expressed mRNA in the presence of chemical substance/The level of expressed mRNA in the absence of chemical substance” value (yeast gene YGR110W, cultured two hours with substance) was 6.4 and the “The level of expressed mRNA in the presence of chemical substance/The level of expressed mRNA in the absence of chemical substance” value (yeast gene YGR130C, cultured two hours with substance) was 2.0. For the same compound, the “The level of expressed mRNA in the presence of chemical substance/The level of expressed mRNA in the absence of chemical substance” value (yeast gene YGR134W, cultured two hours with substance) was 2.4, the “The level of expressed mRNA in the presence of chemical substance/The level of expressed mRNA in the absence of chemical substance” value (yeast gene YGR142W, cultured two hours with substance) was 36.8 and the “The level of expressed mRNA in the presence of chemical substance/The level of expressed mRNA in the absence of chemical substance” value (yeast gene YGR146C, cultured two hours with substance) was 0.8. For the same compound, the “The level of expressed mRNA in the presence of chemical substance/The level of expressed mRNA in the absence of chemical substance” value (yeast gene YGR154C, cultured two hours with substance) was 25.2, the “The level of expressed mRNA in the presence of chemical substance/The level of expressed mRNA in the absence of chemical substance” value (yeast gene YGR197C (transport facilitation protein gene)) was 16.7 and the “The level of expressed mRNA in the presence of chemical substance/The level of expressed mRNA in the absence of chemical substance” value (yeast gene YGR284C, cultured two hours with substance) was 4.3. For the same compound, the “The level of expressed mRNA in the presence of chemical substance/The level of expressed mRNA in the absence of chemical substance” value (yeast gene YHR016C, cultured two hours with substance) was 2.8, the “The level of expressed mRNA in the presence of chemical substance/The level of expressed mRNA in the absence of chemical substance” value (yeast gene YHR029C, cultured two hours with substance) was 13.6 and the “The level of expressed mRNA in the presence of chemical substance/The level of expressed mRNA in the absence of chemical substance” value (yeast gene YHR138C, cultured two hours with substance) was 5.3. The “The level of expressed mRNA in the presence of chemical substance/The level of expressed mRNA in the absence of chemical substance” value (yeast gene YHR199C, cultured two hours with substance) was 8.6, the “The level of expressed mRNA in the presence of chemical substance/The level of expressed mRNA in the absence of chemical substance” value (yeast gene YHR209W, cultured two hours with substance) was 2.9 and the “The level of expressed mRNA in the presence of chemical substance/The level of expressed mRNA in the absence of chemical substance” value (yeast gene YIL023C, cultured two hours with substance) was 3.5. The “The level of expressed mRNA in the presence of chemical substance/The level of expressed mRNA in the absence of chemical substance” value (yeast gene YIL024C, cultured two hours with substance) was 2.2, the “The level of expressed mRNA in the presence of chemical substance/The level of expressed mRNA in the absence of chemical substance” value (yeast gene YIL041W, cultured two hours with substance) was 1.8 and the “The level of expressed mRNA in the presence of chemical substance/The level of expressed mRNA in the absence of chemical substance” value (yeast gene YIL087C, cultured two hours with substance) was 2.4. For the same compound, the “The level of expressed mRNA in the presence of chemical substance/The level of expressed mRNA in the absence of chemical substance” value (yeast gene YIL097W, cultured two hours with substance) was 4.9, the “The level of expressed mRNA in the presence of chemical substance/The level of expressed mRNA in the absence of chemical substance” value (yeast gene YIL117C, cultured two hours with substance) was 2.3 and the “The level of expressed mRNA in the presence of chemical substance/The level of expressed mRNA in the absence of chemical substance” value (yeast gene YIL143C, DNA repair protein genes, cultured two hours with substance) was 7.1. The “The level of expressed mRNA in the presence of chemical substance/The level of expressed mRNA in the absence of chemical substance” value (yeast gene YIL153W, DNA repair protein genes, cultured two hours with substance) was 4.3, the “The level of expressed mRNA in the presence of chemical substance/The level of expressed mRNA in the absence of chemical substance” value (yeast gene YJL020C, cultured two hours with substance) was 1.3 and the “The level of expressed mRNA in the presence of chemical substance/The level of expressed mRNA in the absence of chemical substance” value (yeast gene YJL057C, cultured two hours with substance) was 7.3. The “The level of expressed mRNA in the presence of chemical substance/The level of expressed mRNA in the absence of chemical substance” value (yeast gene YJL066C, cultured two hours with substance) was 2.0 and the “The level of expressed mRNA in the presence of chemical substance/The level of expressed mRNA in the absence of chemical substance” value (yeast gene YJL082W, cultured two hours with substance) was 1.4.
